# Measurements: patent US10941187B2 (The United States of America, as represented by the …, priority 2001, dated 2021)
# Columns and labels:
# Fischer-344 rats = assay: Ibotenic acid induced cholinergic marker deficit, i.c.v. infusion
# [1] = tested on: cultured hippocampal cells; assay: Survival of hippocampal neurons exposed to Aβ1-42 or Fe2+; format: cell-based, rat; details: 2 h pretreatment, then 2 μM Aβ (1-42) or 1 μM Fe2+ for 24 hours
# Protocol: Hippocampi were removed from embryonic day 18 Sprague-Dawley rats, and cells were dissociated by mild trypsination and trituration and seeded onto polyethyleneimine-coated plastic 35 mm diameter dishes at a density of approximately 150 cells/mm^2 of culture surface. Cultures-were maintained in Neurobasal medium containing B-27 supplements (Gibco BRL, Carlsbad, Calif.), 2 mM L-glutamine, 1 mM Hepes and 0.001% gentamicin sulfate (Sigma, St. Louis, Mo.) in a 6% CO2/94% room air atmosphere at 37° C. When maintained under these conditions, the hippocampal cultures consisted of approximately 95% neurons and 5% astrocytes as determined by immunostaining with antibodies against the neuronal antigen NeuN and the astrocyte protein glial fibrillary acidic protein. Aβ1-42 was purchased from Bachem (Torrance, Calif.) and was prepared as a 1 mM stock solution in sterile water. FeSO4 was prepared as a 200 μM stock in sterile water.
# Neuronal survival was quantified as described previously (Mark et. al., 1997). Briefly, viable neurons in premarked fields (10× objective) were counted before experimental treatment and at specified time points thereafter. […] Cultures were then exposed to 2 μM Aβ (1-42) or 1 μM Fe^2+ for 24 hours. […]
# synaptophysin = assay: Synaptophysin expression in PC12 cells (Western blot); format: cell-based, rat; details: PC12 cell lysates, relative to untreated
# Protocol: The synaptophysin monoclonal antibody (Oncogene Research Products, San Diego Calif.), which stains neurosecretory vesicles of PC12 cells, was used. The membranes were blocked with 20 mM Tris, 500 mM NaCl pH 7.4, 1% (w/v) casein (BioRad, San Diego Calif.) at 37° C. for 1 hour. Primary antibody was diluted in block and incubated with the proteins overnight at 4° C. The membrane was vigorously washed with 20 mM Tris pH 7.4, 150 mM NaCl and 0.05% Tween-20 (TBST), three times for 15 minutes at room temperature. The peroxidase-linked secondary antibody in block was incubated with the membrane for 2 hours at room temperature. Peroxidase-linked anti-mouse IgM (Chemicon, Tenecula, Calif.) was used as the secondary antibody against synaptophysin. Excess antibody was washed off with three vigorous washes in TBST prior to incubation in ECL Plus (Amersham, Philadelphia, Pa.) for 5 minutes. The membrane was subsequently exposed to photographic film.
# Beta-2/NeuroD = Beta-2/NeuroD expression in PC12 cells (Western blot); format: cell-based, rat; details: PC12 cell lysates
# Text: Beta-2/NeuroD plays a major role in both neuronal and pancreatic endocrine development. […] Beta-2 expression in pancreatic endocrine cells, the intestine and the brain, activates insulin gene transcription and can induce neurons to differentiate. Mutant mice lacking the functional Beta-2 gene have a striking reduction in the number of insulin-producing beta cells, fail to develop mature islets and as a consequence develop severe diabetes often resulting in perinatal death (Naya et al 1997). Thus, Beta-2/NeuroD is essential for in vivo pancreatic development and neuronal differentiation.
# NeuroD production was determined by Western blot analysis using anti-NeuroD antibody as described above for synaptophysin antibody, except peroxidase-linked anti-goat IgG (Santa Cruz Biotechnology Inc.) was used as the secondary antibody. […] Indeed, Noma et al (1999) have shown that overexpression of NeuroD in transfected PC12 cells induced morphological changes such as neurite-like processes and synapse-like structures, without a differentiating-inducing agent such as NGF.
# PC12 cells = assay: Neurite outgrowth in PC12 cells; format: cell-based, rat; details: low serum medium
# Protocol: Three dishes for each treatment condition were prepared. Treatments began 24 hours after seeding, once cells were well attached.
# PC12 cells were grown on 60 mm dishes as above and cultured for four days. During this time neurite outgrowth was quantified daily. Five random fields of cells were evaluated per dish and the proportion of neurite-bearing cells was determined. Approximately 100 cells per field were scored for neurites equal to or greater in length than that of the cell body. A cell was only scored once, although it may have had more than one process per cell.
# [2] = Stability in human serum by MALDI mass spectrometry; format: in vitro ADME; details: 100% serum, 2 h at 37° C.
# Protocol: Both compounds (100 μM, 100 μl ) were incubated in an equivalent volume of human serum at 37° C. for 2 h. In all cases, enzymatic reactions were quenched by the addition of trifluoroacetic acid (0.1% v/v final concentration). Samples were immediately analyzed using Matrix Assisted […] Desorption Ionisation-Time Of Flight (MALDI-TOF) mass spectrometry. A Micromass MALDI-TOF (Micromass, Beverly, Mass.) reflectron instrument was used at a laser energy of 15-25% over a mass range of 1000-6000 Da, with 5 laser shots summed per spectrum. Alpha-cyano-4-hydroxycinnamicacid (Sigma, St. Louis, Mo.) was used as a matrix and was prepared to a concentration of 10 mg/ml in a 8 mg/ml ammonium carbonate (Sigma, St. Louis, Mo.) buffer. One microlitre samples were diluted 50/50 v/v with matrix before being transferred to the MALDI plate.
# Aβ1-40 [3] = assay: Aβ1-40 in whole brain homogenates after i.c.v. infusion in control mice; format: in vivo, mouse; details: 48 h
# Protocol: Lean db+/db+ control male mice (n=24) were anaesthetized with 50 mg/kg pentobarbitone and placed in a stereotaxic surgical frame with mouse adaptor (David Kopf Instruments, Tujunga, Calif.) using temporal bone cup holders. […] After 48 h all animals were sacrificed by cervical dislocation, the brains removed and rapidly frozen in liquid nitrogen. Brains were pulverized and stored at −80° C. prior to assaying for Aβ levels.
# Equivalent volumes of conditioned media and whole brain homogenate were assayed for Aβ1-40 using a sandwich ELISA (Suzuki et. al., 1994). The monoclonal antibody BAN50 (raised against Aβ1-16) was used as the capture antibody for all species of Aβ (Aβ1-40 and Aβ1-42), and the monoclonal antibody BA27 was used to specifically detect Aβ1-40 levels. Levels of Aβ1-40 were expressed in pM concentrations for conditioned media samples and finol/g for the mouse brain homogenates, as deduced from the appropriate standard curve run in parallel with the assay.
# [4] = tested on: cultured hippocampal neurons; assay: Glutamate-induced apoptotic cell death in hippocampal neurons (Hoechst 33342); format: cell-based, rat; details: GLP-1 10 nM
# Protocol: The fluorescent DNA binding dye Hoescht 33342 was used to measure apoptotic cell death. […] Cells were fixed in a solution of 4% paraformaldehyde in PBS and membranes were permeabilized with 0.2% Trition X-100. Following incubation with Hoechst 33342 (1 μM) for 30 min, nuclei were visualized under epifluorescence illumination (340 nm excitation, 510 nm barrier filter) using a 40× oil-immersion objective. Approximately 200 cells were counted in at least three separate dishes for each treatment condition, and experiments were repeated at least twice. Cells were considered apoptotic if nuclear DNA was fragmented or condensed, whereas cells with nuclear DNA of a more diffuse and uniform distribution, were considered viable. At the time of counting, the investigator was unaware of the identity of the treatment groups. The percentage of cells with condensed or fragmented nuclei was determined in each culture.
# Aβ1-40 [5] = assay: Aβ1-40 sandwich ELISA of PC12 conditioned media; format: cell-based, rat; details: PC12 cells, relative to control cells
# [6] = tested on: β-amyloid precursor protein (βAPP); assay: Western immunoblot of βAPP (cell lysates) and sAPP (conditioned media) in PC12 cells; details: day 3, relative to untreated
smiles,measurement,setting,value
"CC[C@H](C)[C@H](NC(=O)[C@H](Cc1ccccc1)NC(=O)[C@H](CCC(=O)O)NC(=O)[C@H](CCCCN)NC(=O)[C@H](C)NC(=O)[C@H](C)NC(=O)[C@H](CCC(N)=O)NC(=O)CNC(=O)[C@H](CCC(=O)O)NC(=O)[C@H](CC(C)C)NC(=O)[C@H](Cc1ccc(O)cc1)NC(=O)[C@H](CO)NC(=O)[C@H](CO)NC(=O)[C@@H](NC(=O)[C@H](CC(=O)O)NC(=O)[C@H](CO)NC(=O)[C@@H](NC(=O)[C@H](Cc1ccccc1)NC(=O)[C@@H](NC(=O)CNC(=O)[C@H](CCC(=O)O)NC(=O)[C@H](C)NC(=O)[C@@H](N)Cc1c[nH]cn1)[C@@H](C)O)[C@@H](C)O)C(C)C)C(=O)N[C@@H](C)C(=O)N[C@@H](Cc1c[nH]c2ccccc12)C(=O)N[C@@H](CC(C)C)C(=O)N[C@H](C(=O)N[C@@H](CCCCN)C(=O)NCC(=O)N[C@@H](CCCNC(=N)N)C(N)=O)C(C)C [GLP-1, glucagon-like peptide-1]","Abercrombie corrected ChAT-positive cell counts, Left basal nucleus (lesion side)",Fischer-344 rats; Lesion (ibotenic acid),404 ± 59
same,"Abercrombie corrected ChAT-positive cell counts, Right basal nucleus (infusion side)",Fischer-344 rats; Lesion (ibotenic acid),423 ± 45
same,"Abercrombie corrected ChAT-positive cell counts, Left basal nucleus (lesion side)",Fischer-344 rats; Sham,517 ± 50
same,"Abercrombie corrected ChAT-positive cell counts, Right basal nucleus (infusion side)",Fischer-344 rats; Sham,499 ± 41
same,"food and water intake, body weight during infusion",Fischer-344 rats; i.c.v. minipump infusion,modestly aphagic and adipsic
same,loss of ChAT-immunoreactive cell bodies in left basal nucleus below that of the right basal nucleus,"Fischer-344 rats; ibotenic acid lesion, 14 days i.c.v. infusion (vehicle 43%)",6%
same,concentration of maximum protective effect against death induced by Aβ1-42 and Fe2+,[1],10 nM
same,synaptophysin expression,synaptophysin,dramatically reduced the expression of the synaptophysin protein
same,Beta-2/NeuroD expression (43 kDa band),Beta-2/NeuroD,increased following GLP-1 treatment
same,differentiation / neurite outgrowth,PC12 cells,produced similar effects on differentiation to those induced by NGF
same,stability in human serum (N-terminal truncated product by MALDI),[2],considerable increase in the amount of N-terminal truncated product
same,reduction of Aβ1-40 levels compared to vehicle,"Aβ1-40 [3]; 3.3 μg GLP-1 i.c.v., not significant",16%
same,reduction of Aβ1-40 levels compared to vehicle,"Aβ1-40 [3]; 6.6 μg GLP-1 i.c.v., p<0.01",36%
same,"apoptotic cells, concurrent treatment with glutamate","[4]; 10 μM glutamate overnight, exendin-4 0.3 μM (medium alone 23%, glutamate 73%)",24%
same,protection against apoptotic effects of glutamate,"[4]; 10 μM glutamate, exendin-4 0.3 μM",completely protected
same,"apoptotic cells, peptide alone","[4]; exendin-4 0.3 μM, no glutamate",20%
same,Aβ1-40 levels in conditioned media,Aβ1-40 [5],did not significantly alter levels of Aβ1-40 production
same,intracellular levels of βAPP (cell lysates),[6],significantly decreased intracellular levels of βAPP
